Laboratory results reported in patent US20020137929A1, “1 - (3-heterocyclylphenyl) isothiourea, -isourea, -guanidine and -amidine herbicidal agents” (Intellectual Property Department, BASF Aktiengesellschaft, priority 1998, published 2002).

What was measured:
CASOB (Sicklepod) = assay: Postemergence herbicidal evaluation; assay type: in vivo, Cassia obtusifolia
Protocol: (§1) In the tests, seedling plants are grown in jiffy flats for about two weeks. The test compounds are dispersed in 50/50 acetone/water mixtures containing 0.5% TWEEN®20, a polyoxyethylene sorbitan monolaurate surfactant of Atlas Chemical Industries, in sufficient quantities to provide the equivalent of about 0.0156 kg to 0.500 kg per hectare of active compound when applied to the plants through a spray nozzle operating at 40 psi for a predetermined time. After spraying, the plants are placed on greenhouse benches and are cared for in accordance with conventional greenhouse procedures. From four to five weeks after treatment, the seedling plants are examined and rated according to the rating system set forth below. Where more than one test is involved for a given compound, the data are averaged.
(§2) Plant species employed in these evaluations are reported by header abbreviation, common name and scientific name.
(§3) Results of herbicide evaluation are expressed on a rating scale (0-9). The scale is based upon a visual observation of plant stand, vigor, malformation, size, chlorosis and overall plant appearance as compared with a control.

ZEAMX (Corn, Field) = assay: Postemergence herbicidal evaluation; assay type: in vivo, Zea mays
Summary of the method: (§4)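 Visual 0–9 rating versus control (stand, vigor, malformation, size, chlorosis, overall appearance), taken four to five weeks post-spray. Two-week-old seedlings received roughly 0.0156–0.500 kg/ha active in acetone/water (50/50) with 0.5% TWEEN 20 via nozzle at 40 psi.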

SETVI (Foxtail, Green) = assay: Postemergence herbicidal evaluation; assay type: in vivo, Setaria viridis
Summary of the method: as §4

MOOVA (Monochoria) [1] = assay: Postemergence weed control under flooded paddy conditions; assay type: in vivo, Monochoria vaginalis; settings: postemergence weeds, 3-4 weeks after treatment
Text: as §3
(§5) Plastic containers containing weeds which are 3 to 5 cm tall and rice seedlings at the 1.5 to 2.5 leaf stage are flooded with water. The water is maintained at 1.5 to 3 cm above the soil surface for the duration of the experiment. Test compounds are applied as aqueous/ acetone mixtures 50/50 v/v directly into the flood water to provide the equivalent of about 0.0313 to 0.500 kg/ha of active ingredient. The treated containers are placed on greenhouse benches and cared for in accordance with conventional greenhouse procedures. Three to four weeks after treatment, the test is terminated and each container is examined and herbicidal effect rated according to the rating system provided in Example 37. The compounds evaluated are reported by compound number given in Example 37.

[2] = tested on: SAGPY (Arrowhead (Pygmaea)); assay: Preemergence weed control under flooded paddy conditions; assay type: in vivo, Sagittaria pygmaea; settings: rated 3-4 weeks after treatment
Summary of the method: (§6)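 Visual injury scored 0-9 against control three to four weeks post-treatment, greenhouse-grown. Application: acetone/water (50/50) solutions dosed directly into flood water (1.5-3 cm over silt loam, planted top 0.5 cm), roughly 0.0313 to 0.500 kg/ha active ingredient.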

ORYSAT (Rice, Tebonnet) = assay: Postemergence herbicidal evaluation; assay type: in vivo, Oryza sativa, (L.) Tebonnet
Protocol: as §1, §2, §3

[3] = tested on: ECHORC (Watergrass (Calif.)); assay: Preemergence weed control under flooded paddy conditions; assay type: in vivo, Echinochloa oryzoides; settings: rated 3-4 weeks after treatment
Protocol: as §3
(§7) Preemergence herbicidal activity under flooded paddy conditions is determined as follows: plant seeds or propagating organs are planted in the top 0.5 cm of silt loam soil in 32 oz. plastic containers with a diameter of 10.5 cm and no drainage holes. Water is added to these containers and maintained at 1.5 to 3 cm above the soil surface for the duration of the experiment. The test compounds are applied as aqueous/acetone mixtures 50/50 v/v pipetted directly into the flood water to give the equivalent of about 0.0313 to 0.500 kg/ha of active ingredient. The treated containers are placed on greenhouse benches and cared for in accordance with conventional greenhouse procedures. Three to four weeks after treatment, the test is terminated and each container is examined and herbicidal effect rated according to the rating system provided in Example 37. The compounds evaluated are reported by compound number given in Example 37.
(§8) Plant species employed in this example are reported by header abbreviation, common name and scientific name.

[4] = tested on: ECHORC (Watergrass (Calif.)); assay: Postemergence weed control under flooded paddy conditions; assay type: in vivo, Echinochloa oryzoides; settings: postemergence weeds, 3-4 weeks after treatment
Text: as §3, §5

CYPIR (Rice Flatsedge) [5] = assay: as above; assay type: in vivo, Cyperus iria; settings: postemergence weeds, 3-4 weeks after treatment
Text: as §3, §5

MOOVA (Monochoria) [6] = assay: Preemergence weed control under flooded paddy conditions; assay type: in vivo, Monochoria vaginalis; settings: rated 3-4 weeks after treatment
Protocol: as §3, §7, §8

GALAP (Galium) = assay: Postemergence herbicidal evaluation; assay type: in vivo, Galium aparine
Summary of the method: as §4

ABUTH (Velvetleaf) = assay: Postemergence herbicidal evaluation; assay type: in vivo, Abutilon theophrasti
Protocol: as §1, §2, §3

CYPIR (Rice Flatsedge) [7] = assay: Preemergence weed control under flooded paddy conditions; assay type: in vivo, Cyperus iria; settings: rated 3-4 weeks after treatment
Summary of the method: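 Herbicidal effect is scored visually on a 0-9 scale against an untreated control, three to four weeks after compounds are pipetted into the flood water (1.5 to 3 cm deep) over seeds planted in silt loam at 0.5 cm depth. Rates: about 0.0313 to 0.500 kg/ha.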

[8] = tested on: TRZAWR (Wheat, Winter, cv Riband); assay: Postemergence herbicidal evaluation; assay type: in vivo, Triticum aestivum
Summary of the method: as §4

[9] = tested on: IPOHE (Morningglory, Ivyleaf); assay: Postemergence herbicidal evaluation; assay type: in vivo, Ipomoea hederacea
Summary of the method: as §4

CYPSE (Flatsedge) [10] = assay: Postemergence weed control under flooded paddy conditions; assay type: in vivo, Cyperus serotinus; settings: postemergence weeds, 3-4 weeks after treatment
Text: as §3, §5

[11] = tested on: SAGPY (Arrowhead (Pygmaea)); assay: as above; assay type: in vivo, Sagittaria pygmaea; settings: postemergence weeds, 3-4 weeks after treatment
Text: as §3, §5

[12] = tested on: GLXMAW (Soybean, Williams); assay: Postemergence herbicidal evaluation; assay type: in vivo, Glycine max, (L.) Merr. cv Williams
Protocol: as §1, §2, §3

AMBEL (Ragweed, Common) = assay: Postemergence herbicidal evaluation; assay type: in vivo, Ambrosia artemisifolia
Protocol: as §1, §2, §3

CYPSE (Flatsedge) [13] = assay: Preemergence weed control under flooded paddy conditions; assay type: in vivo, Cyperus serotinus; settings: rated 3-4 weeks after treatment
Summary of the method: as §6

[14] = tested on: CHEAL (Lambsquarters, Common); assay: Postemergence herbicidal evaluation; assay type: in vivo, Chenopodium album
Protocol: as §1, §2, §3

ECHCG (Barnyardgrass) = assay: Postemergence herbicidal evaluation; assay type: in vivo, Echinochloa crus-galli
Summary of the method: as §4

CCOC(=O)CN1C(=O)C(CC(=O)NC)SC1=Nc1cc(-n2c(=O)cc(C(F)(F)F)n(C)c2=O)c(F)cc1Cl (stereo not shown) [Compound 57, Ethyl 2-{{2-chloro-5-[3,6-dihydro-3-methyl-2,6-dioxo-4-(trifluoromethyl)-1(2H)-pyrimidinyl]-4-fluorophenyl}imino}-5-[(methylcarbamoyl)methyl]-4-oxo-3-thiazolidineacetate]
Postemergence herbicidal rating CASOB (CASOB (Sicklepod); Rate 0.0158 kg/ha): 2.0 | Postemergence herbicidal rating CASOB (CASOB (Sicklepod); Rate 0.0315 kg/ha): 2.0 | Postemergence herbicidal rating CASOB (CASOB (Sicklepod); Rate 0.0630 kg/ha): 6.0 | Postemergence herbicidal rating ZEAMX (ZEAMX (Corn, Field); Rate 0.0158 kg/ha): 4.5 | Postemergence herbicidal rating ZEAMX (ZEAMX (Corn, Field); Rate 0.0315 kg/ha): 5.0 | Postemergence herbicidal rating ZEAMX (ZEAMX (Corn, Field); Rate 0.0630 kg/ha): 5.0 | Postemergence herbicidal rating SETVI (SETVI (Foxtail, Green); Rate 0.0158 kg/ha): 2.0 | Postemergence herbicidal rating SETVI (SETVI (Foxtail, Green); Rate 0.0315 kg/ha): 4.0 | Postemergence herbicidal rating SETVI (SETVI (Foxtail, Green); Rate 0.0630 kg/ha): 5.0 | Herbicidal rating MOOVA (MOOVA (Monochoria) [1]; rate 0.0313 kg/ha): 9.0 | Herbicidal rating MOOVA (MOOVA (Monochoria) [1]; rate 0.0625 kg/ha): 9.0 | Herbicidal rating MOOVA (MOOVA (Monochoria) [1]; rate 0.1250 kg/ha): 9.0 | Herbicidal rating MOOVA (MOOVA (Monochoria) [1]; rate 0.2500 kg/ha): 9.0 | Herbicidal rating SAGPY ([2]; 0.0313 kg/ha): 0.0 | Herbicidal rating SAGPY ([2]; 0.0625 kg/ha): 0.0 | Herbicidal rating SAGPY ([2]; 0.1250 kg/ha): 0.0 | Herbicidal rating SAGPY ([2]; 0.2500 kg/ha): 6.0 | Postemergence herbicidal rating ORYSAT (ORYSAT (Rice, Tebonnet); Rate 0.0158 kg/ha): 1.5 | Postemergence herbicidal rating ORYSAT (ORYSAT (Rice, Tebonnet); Rate 0.0315 kg/ha): 2.5 | Postemergence herbicidal rating ORYSAT (ORYSAT (Rice, Tebonnet); Rate 0.0630 kg/ha): 3.0 | Herbicidal rating ECHORC ([3]; 0.0313 kg/ha): 0.0 | Herbicidal rating ECHORC ([3]; 0.0625 kg/ha): 2.0 | Herbicidal rating ECHORC ([3]; 0.1250 kg/ha): 2.0 | Herbicidal rating ECHORC ([3]; 0.2500 kg/ha): 5.0 | Herbicidal rating ECHORC ([4]; rate 0.0313 kg/ha): 0.0 | Herbicidal rating ECHORC ([4]; rate 0.0625 kg/ha): 2.0 | Herbicidal rating ECHORC ([4]; rate 0.1250 kg/ha): 2.0 | Herbicidal rating ECHORC ([4]; rate 0.2500 kg/ha): 5.0 | Herbicidal rating CYPIR (CYPIR (Rice Flatsedge) [5]; rate 0.0313 kg/ha): 0.0 | Herbicidal rating CYPIR (CYPIR (Rice Flatsedge) [5]; rate 0.0625 kg/ha): 9.0 | Herbicidal rating CYPIR (CYPIR (Rice Flatsedge) [5]; rate 0.1250 kg/ha): 9.0 | Herbicidal rating CYPIR (CYPIR (Rice Flatsedge) [5]; rate 0.2500 kg/ha): 9.0 | Herbicidal rating MOOVA (MOOVA (Monochoria) [6]; 0.0313 kg/ha): 9.0 | Herbicidal rating MOOVA (MOOVA (Monochoria) [6]; 0.0625 kg/ha): 9.0 | Herbicidal rating MOOVA (MOOVA (Monochoria) [6]; 0.1250 kg/ha): 9.0 | Herbicidal rating MOOVA (MOOVA (Monochoria) [6]; 0.2500 kg/ha): 9.0 | Postemergence herbicidal rating GALAP (GALAP (Galium); Rate 0.0158 kg/ha): 4.0 | Postemergence herbicidal rating GALAP (GALAP (Galium); Rate 0.0315 kg/ha): 6.0 | Postemergence herbicidal rating GALAP (GALAP (Galium); Rate 0.0630 kg/ha): 5.0 | Postemergence herbicidal rating ABUTH (ABUTH (Velvetleaf); Rate 0.0158 kg/ha): 9.0 | Postemergence herbicidal rating ABUTH (ABUTH (Velvetleaf); Rate 0.0315 kg/ha): 9.0 | Postemergence herbicidal rating ABUTH (ABUTH (Velvetleaf); Rate 0.0630 kg/ha): 9.0 | Herbicidal rating CYPIR (CYPIR (Rice Flatsedge) [7]; 0.0313 kg/ha): 0.0 | Herbicidal rating CYPIR (CYPIR (Rice Flatsedge) [7]; 0.0625 kg/ha): 9.0 | Herbicidal rating CYPIR (CYPIR (Rice Flatsedge) [7]; 0.1250 kg/ha): 9.0 | Herbicidal rating CYPIR (CYPIR (Rice Flatsedge) [7]; 0.2500 kg/ha): 9.0 | Postemergence herbicidal rating TRZAWR ([8]; Rate 0.0158 kg/ha): 3.0 | Postemergence herbicidal rating TRZAWR ([8]; Rate 0.0315 kg/ha): 4.0 | Postemergence herbicidal rating TRZAWR ([8]; Rate 0.0630 kg/ha): 4.0 | Postemergence herbicidal rating IPOHE ([9]; Rate 0.0158 kg/ha): 9.0 | Postemergence herbicidal rating IPOHE ([9]; Rate 0.0315 kg/ha): 9.0 | Postemergence herbicidal rating IPOHE ([9]; Rate 0.0630 kg/ha): 9.0 | Herbicidal rating CYPSE (CYPSE (Flatsedge) [10]; rate 0.0313 kg/ha): 0.0 | Herbicidal rating CYPSE (CYPSE (Flatsedge) [10]; rate 0.0625 kg/ha): 0.0 | Herbicidal rating CYPSE (CYPSE (Flatsedge) [10]; rate 0.1250 kg/ha): 0.0 | Herbicidal rating CYPSE (CYPSE (Flatsedge) [10]; rate 0.2500 kg/ha): 3.0 | Herbicidal rating SAGPY ([11]; rate 0.0313 kg/ha): 0.0 | Herbicidal rating SAGPY ([11]; rate 0.0625 kg/ha): 0.0 | Herbicidal rating SAGPY ([11]; rate 0.1250 kg/ha): 0.0 | Herbicidal rating SAGPY ([11]; rate 0.2500 kg/ha): 6.0 | Postemergence herbicidal rating GLXMAW ([12]; Rate 0.0158 kg/ha): 6.5 | Postemergence herbicidal rating GLXMAW ([12]; Rate 0.0315 kg/ha): 6.5 | Postemergence herbicidal rating GLXMAW ([12]; Rate 0.0630 kg/ha): 9.0 | Postemergence herbicidal rating AMBEL (AMBEL (Ragweed, Common); Rate 0.0158 kg/ha): 9.0 | Postemergence herbicidal rating AMBEL (AMBEL (Ragweed, Common); Rate 0.0315 kg/ha): 9.0 | Postemergence herbicidal rating AMBEL (AMBEL (Ragweed, Common); Rate 0.0630 kg/ha): 9.0 | Herbicidal rating CYPSE (CYPSE (Flatsedge) [13]; 0.0313 kg/ha): 0.0 | Herbicidal rating CYPSE (CYPSE (Flatsedge) [13]; 0.0625 kg/ha): 0.0 | Herbicidal rating CYPSE (CYPSE (Flatsedge) [13]; 0.1250 kg/ha): 0.0 | Herbicidal rating CYPSE (CYPSE (Flatsedge) [13]; 0.2500 kg/ha): 3.0 | Postemergence herbicidal rating CHEAL ([14]; Rate 0.0158 kg/ha): 9.0 | Postemergence herbicidal rating CHEAL ([14]; Rate 0.0315 kg/ha): 9.0 | Postemergence herbicidal rating CHEAL ([14]; Rate 0.0630 kg/ha): 9.0 | Postemergence herbicidal rating ECHCG (ECHCG (Barnyardgrass); Rate 0.0158 kg/ha): 1.0 | Postemergence herbicidal rating ECHCG (ECHCG (Barnyardgrass); Rate 0.0315 kg/ha): 1.0 | Postemergence herbicidal rating ECHCG (ECHCG (Barnyardgrass); Rate 0.0630 kg/ha): 1.0
